From patent publication US7754699B2, “Antiviral nucleosides” (Roche Palo Alto LLC, priority 2005, dated 2010)
In brackets after ≈: the same amount, converted by molar mass. Read-outs that look alike come from different tables or passages of the source.

Assays:
in vitro = in vitro ADME; conditions: human, Caco-2, Caco-2 (2-7d) Papp
Description: To further evaluate potential behavior in human subjects, the transport through Caco-2 cells was evaluated for the putative prodrugs. Caco-2 cells are commonly used to evaluated the potential absorption/permeability of molecules (G. Gaviraghi et al. in Pharmacokinetic optimization in drug research. Biological, Pharmacokinetic and Computational Strategies. B. Testa et al. eds. Wiley Interscience VCH, Zurich 2001 pp 3-14).
Powders of Krebs-Henseleit buffer, calcium chloride dihydrate, and sodium bicarbonate were purchased from Sigma (St. Louis, Mo.). Caco-2 cells (Passage ˜100) were obtained from Roche Basel. DMEM/high medium, 4-(2-hydroxyethyl)-1-piperazineethane-sulfonic acid (HEPES), and bovine serum were obtained from JRH Bioscience (Lenexa, Kans.). MEM nonessential amino acids, L-glutamine, penicillin, and streptomycin were obtained from GIBCO Labs, Life Tech. LLC (Grand Island, N.Y.). Snapwell cell culture inserts ([…], 1.12 cm^2, 0.4 μm pore size) were obtained from Costar (Cambridge, Mass.).
Cells were grown in 75-cm^2 flasks and maintained at 37° C. in an atmosphere of 5% CO2 and 95% air. Culture media consisted of DMEM/high medium supplemented with 5% bovine serum, 25 mM HEPES, 1% MEM non-essential amino acids, 1% L-glutamine, 100 U/mL penicillin, and 100 μg/mL streptomycin. Cultures were passaged every week at a split ratio of 1-3. For the permeability studies, Caco-2 cells at passage number 110-120 were plated at a density of 400,000 cells/cm^2 on Transwell polycarbonate filters in Snapwell inserts and allowed to culture for 7 days prior to use.
Krebs-Henseleit bicarbonate buffer containing 10 mM glucose and 2.5 mM CaCl2 adjusted to pH 6.5 and 7.4 were prepared per packet instructions. Powder salts were quantitatively dissolved in about 90% of required volume with Millipore water. Calcium chloride dihydrate and sodium bicarbonate were added before pH adjustment with 1N HCl or 1N NaOH. Additional Millipore water was added to bring the solution to final volume. The solution was sterilized by filtration using membrane with a porosity of 0.22 microns and stored in the refrigerator ([…]) until use.
Differentiated cells were obtained from Cell Culture Core Facility and allowed to equilibrate at 37° C. in an atmosphere of 5% CO2 and 95% air. Snapwells inserts, containing caco-2 monolayers were rinsed in 37° C. equilibrated Krebs-Henseleit pH 7.4 buffer.
The cell insert was utilized as the diffusion chamber. The pH of the Krebs-Henseleit buffer in the apical and basolateral chambers was 6.5 and 7.4, respectively, and the initial concentration of substrate in apical side was 100 μM. […]
The Papp was calculated using the following formula: […]

[1] = Experimentally determined distribution coefficient; format: physicochemical; conditions: octanol/buffered aqueous solution, pH 7.4; read-out: log D (distribution coefficient)
From the text: The expression PO/W as used herein refers to the octanol/water partition coefficient. The expression clogP as used herein refers to the calculated PO/W. Computer programs which calculate PO/W are readily available to the pharmaceutical and medicinal chemist. The term distribution coefficient refers to the experimentally determined partition coefficient between octanol and a buffered aqueous solution. The partition coefficient and distribution coefficient are generally similar but the latter is a function of the pH of the aqueous solution whereas the PO/W is independent of pH.

Solubility = format: physicochemical
Description: (§1) Particularly relevant are water solubility, partition coefficient and stability in gastric and intestinal fluids. […] The solubility in water of a orally administered prodrug should be greater than at least about 0.1 mg/mL for optimal formulation and the half-lives in simulated gastric fluid and simulated intestinal fluid should be 1-2 h and 2-4 h respectively to allow sufficient time to traverse the stomach and be absorbed in the intestine.

[2] = Stability in simulated gastric fluid; format: physicochemical; conditions: simulated gastric fluid pH 1.2, 37° C.; read-out: SGF T1/2 (converted)
Description: as §1

[3] = Stability in simulated intestinal fluid; format: physicochemical; conditions: simulated intestinal fluid pH 7.4, 37° C.; read-out: SIF T1/2 (converted)
Description: as §1

HCV = conditions: monotherapy; cited from earlier work
[4] = aqueous media, water, or buffer pH 6.5, read-out: Solubility
[5] = simulated gastric fluid (SGF), simulated gastric fluid, read-out: Solubility in SGF
[6] = simulated intestinal fluid (SIF), fassgf or other biorelevant, media is SIF, read-out: Solubility

| Papp A→B at 30 min, 100 μM (in vitro) [×10⁻⁶ cm/s] | logD [1] | solubility (Solubility; [4]) [µg/mL] | solubility (Solubility; [5]) [µg/mL] | half-life [2] [h] | half-life [3] [h] | melting point [°C] | SMILES | solubility (Solubility; [6]) [µg/mL] | reduces serum amino transferase levels to normal (HCV) | serum levels of HCV-RNA (HCV) |
| --- | --- | --- | --- | --- | --- | --- | --- | --- | --- | --- |
| 3.93 | 1.67 | 180 (≈ 0.451 mM) | 13300 (≈ 33.3 mM) | 25.1 | 866 |  | CC(C)C(=O)OC[C@H]1O[C@@H](n2ccc(N)nc2=O)[C@](C)(F)[C@@H]1OC(=O)C(C)C [I-2, Isobutyric acid (2R,3R,4R,5R)-5-(4-amino-2-oxo-2H-pyrimidin-1-yl)-4-fluoro-3-isobutyryloxy-4-methyl-tetrahydro-furan-2-ylmethyl ester] |  |  |  |
|  | 0.9 |  | 13600 (≈ 36.6 mM) | 9 | 72 | 185.2 to 186 | CCC(=O)OC[C@H]1O[C@@H](n2ccc(N)nc2=O)[C@](C)(F)[C@@H]1OC(=O)CC [I-3, Propionic acid (2R,3R,4R,5R)-5-(4-amino-2-oxo-2H-pyrimidin-1-yl)-4-fluoro-4-methyl-3-propionyloxy-tetrahydro-furan-2-ylmethyl ester] | 3700 (≈ 9.96 mM) |  |  |
| 13.4 |  | 130 |  | > 10.4 | > 11 | 192 to 194.4 | CCCOC(=O)OC[C@H]1O[C@@H](n2ccc(N)nc2=O)[C@](C)(F)[C@@H]1OC(=O)OCCC.Cl [I-5, Carbonic acid (2R,3R,4R,5R)-5-(4-amino-2-oxo-2H-pyrimidin-1-yl)-4-fluoro-4-methyl-2-propoxycarbonyloxymethyl-tetrahydro-furan-3-yl ester propyl ester; hydrochloride salt] |  |  |  |
| 0.4 |  | 76000 (≈ 293 mM) |  | > 12 | > 12 |  | C[C@@]1(F)[C@H](O)[C@@H](CO)O[C@H]1n1ccc(N)nc1=O [I-6, 4-amino-1-((2R,3R,4R,5R)-3-fluoro-4-hydroxy-5-hydroxymethyl-3-methyl-tetrahydro-furan-2-yl)-1H-pyrimidin-2-one, reference compound] |  |  |  |
|  |  |  |  |  |  |  | NC(=O)c1ncn([C@@H]2O[C@H](CO)[C@@H](O)[C@H]2O)n1 [ribavirin, 1-((2R,3R,4S,5R)-3,4-Dihydroxy-5-hydroxymethyl-tetrahydro-furan-2-yl)-1H-[1,2,4]triazole-3-carboxylic acid amide] |  | 40 % of patients | does not lower |

| SMILES | Papp A→B at 30 min, 100 μM (in vitro) [×10⁻⁶ cm/s] | logD [1] | solubility (Solubility; [4]) [µg/mL] | solubility (Solubility; [5]) [µg/mL] | half-life [2] [h] | half-life [3] [h] | melting point [°C] | solubility (Solubility; [6]) [µg/mL] | reduces serum amino transferase levels to normal (HCV) | serum levels of HCV-RNA (HCV) |
| --- | --- | --- | --- | --- | --- | --- | --- | --- | --- | --- |
| CC(C)COC(=O)OC[C@H]1O[C@@H](n2ccc(N)nc2=O)[C@](C)(F)[C@@H]1OC(=O)OCC(C)C [I-4, Carbonic acid (2R,3R,4R,5R)-5-(4-amino-2-oxo-2H-pyrimidin-1-yl)-4-fluoro-2-isobutoxycarbonyloxymethyl-4-methyl-tetrahydro-furan-3-yl ester isobutyl ester] | 6.4 |  |  | 160 (≈ 0.348 mM) | > 7 | > 15 | 210 to 211.5 | 13 (≈ 0.0283 mM) |  |  |
